Holding throughout (type): cell-based
Experiment [1] has as its target T1, AR protein (Homo sapiens, UniProt P10275, T878A).
T1 construct: degradation activity of the compounds disclosed in the present disclosure on AR protein in LNCaP cells; host or cells: LNCaP FGC
T1 sequence (P10275 1-920 T878A): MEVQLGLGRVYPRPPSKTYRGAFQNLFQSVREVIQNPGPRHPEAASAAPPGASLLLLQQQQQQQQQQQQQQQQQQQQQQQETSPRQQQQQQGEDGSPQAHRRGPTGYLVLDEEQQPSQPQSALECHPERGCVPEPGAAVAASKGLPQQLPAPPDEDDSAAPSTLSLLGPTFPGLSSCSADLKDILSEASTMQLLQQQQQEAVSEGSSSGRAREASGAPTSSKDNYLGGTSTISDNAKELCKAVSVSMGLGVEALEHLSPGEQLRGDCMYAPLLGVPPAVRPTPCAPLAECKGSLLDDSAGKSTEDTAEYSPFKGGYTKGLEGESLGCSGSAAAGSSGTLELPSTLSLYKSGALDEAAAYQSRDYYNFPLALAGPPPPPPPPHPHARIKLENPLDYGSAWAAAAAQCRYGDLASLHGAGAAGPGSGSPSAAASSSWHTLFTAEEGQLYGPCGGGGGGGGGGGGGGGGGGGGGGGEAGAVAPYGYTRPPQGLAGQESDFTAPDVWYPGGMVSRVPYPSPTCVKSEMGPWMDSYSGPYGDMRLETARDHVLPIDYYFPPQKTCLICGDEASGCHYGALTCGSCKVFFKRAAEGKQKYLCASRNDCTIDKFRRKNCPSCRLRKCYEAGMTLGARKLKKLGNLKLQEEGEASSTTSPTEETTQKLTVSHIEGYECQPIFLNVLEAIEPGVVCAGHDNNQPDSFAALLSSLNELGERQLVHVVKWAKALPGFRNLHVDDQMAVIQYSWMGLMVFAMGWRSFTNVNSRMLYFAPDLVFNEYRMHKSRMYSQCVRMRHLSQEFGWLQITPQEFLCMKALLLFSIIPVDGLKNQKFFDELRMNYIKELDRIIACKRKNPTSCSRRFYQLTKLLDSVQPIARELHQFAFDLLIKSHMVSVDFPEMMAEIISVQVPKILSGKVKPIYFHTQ
Kind of experiment: Degradation of AR protein in LNCaP cells (Western blot). The note with it: for inhibition at 0.01 µM: read-out: Degradation rates of the AR protein in LNCaP cells, 10 nM (%); for inhibition at 0.1 µM: read-out: Degradation rates of the AR protein in LNCaP cells, 100 nM (%). The gist of the method:
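AR assessed by SDS-PAGE/Western blot with infrared imaging; band greyscale normalised to GAPDH gave percent degradation.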
(In general: In western blotting, separated proteins are transferred to a membrane and probed.)

The target of experiment [2] is T2, AR protein (Homo sapiens, UniProt P10275).
T2 construct: degradation activity of the compounds disclosed in the present disclosure on AR protein in VCaP cells; host or cells: VCaP
T2 sequence (P10275 1-920): T1 sequence (P10275 1-920 T878A) with A878T
The experiment in a line: Degradation of AR protein in VCaP cells (Western blot). The note with it: 8 hours; for inhibition at 0.01 µM: read-out: Degradation rate of the AR protein in VCaP cells, 10 nM (%); for inhibition at 0.1 µM: read-out: Degradation rate of the AR protein in VCaP cells, 100 nM (%). The gist of the method:
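VCaP cells treated with compound alongside solvent controls for 8 h, then lysed in RIPA and protein quantified by BCA. AR detected by SDS-PAGE/Western blot with infrared imaging. Degradation rate calculated from band grayscale, with GAPDH as internal reference.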

For a further experiment, the system named is LNCaP FGC cells. Kind of experiment: Inhibition of proliferation of LNCaP cells (WST-8). The settings on record: Homo sapiens, LNCaP, 96 h. The procedure: The cells were cultured in a cell culture incubator with 5% CO2 at 37° C. overnight. […] On the sixth day, 96 well plates were taken out, and 20 μL of WST-8 (Beytime, C0040) reagent was added to each well.
A general note: Formazan colour is commonly taken as a measure of viable cells.

The next experiment concerns VCaP cells. The experiment in a line: Inhibition of proliferation of VCaP cells (WST-8). The settings on record: Homo sapiens, read-out: IC50 for inhibiting the proliferation of VCaP cells. The gist of the method:
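VCaP FGC cells, 15000 per well in DMEM with 10% FBS, were cultured at 37° C, 5% CO2. On day nine, WST-8 reagent was added to read proliferation.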

[3] abbreviates: LNCaP cells, compound 10 nM, 8 hours, Western blot grayscale, GAPDH internal reference.
[4] abbreviates: LNCaP cells, compound 100 nM, 8 hours, Western blot grayscale, GAPDH internal reference.
Setting [5] is: LNCaP FGC cells, 96 hours, WST-8 absorbance at 450 nm, read-out: IC50 for inhibiting the proliferation of LNCaP cells.
Where [6] appears, read: VCaP cells, 168 hours, WST-8 absorbance at 450 nm.
Where [7] appears, read: read-out: IC50 for inhibiting the proliferation of LNCaP cells, LNCaP FGC cells, 96 hours, WST-8 absorbance at 450 nm.

The values below come from patent US20260234157A1, “COMPOUND AND METHOD FOR TARGETED DEGRADATION OF ANDROGEN RECEPTOR” (Gan & Lee Pharmaceuticals Co., Ltd., priority 2023, published 2026).

Residue numbers refer to the chain shown, from its start. Read-outs that look alike come from different tables or passages of the source.

With `N#Cc1ccc(O[C@H]2CC[C@H](NC(=O)c3ccc(N4CC(CN5CCC6(CCc7cc8c(cc7O6)C(=O)N(C6CCC(=O)NC6=O)C8=O)CC5)C4)nn3)CC2)cc1Cl` (stereo partly shown) [Compound 20], the inhibition at 0.01 µM came out at 13% on AR protein [1] (setting [3]) and 41% at AR protein [2] (compound at 10 nM). Besides, the inhibition at 0.1 µM on AR protein [1] (setting [4]) is 48%; at AR protein [2] (compound at 100 nM) it was 54%. In addition, the results for the IC50 in the experiment on LNCaP FGC cells (setting [5]) and in the experiment with VCaP cells (setting [6]) were 1 µM and 0.17 µM, respectively.

For the compound `CC1(CN2CCC3(CC2)COc2c3ccc3c2CN(C2CCC(=O)NC2=O)C3=O)CCN(c2ccc(C(=O)N[C@H]3CC[C@H](Oc4ccc(C#N)c(Cl)c4)CC3)nc2)CC1` (stereo partly shown) [Compound 259], the inhibition at 0.01 µM is -16% on AR protein [1] (setting [3]) and 33% at AR protein [2] (compound at 10 nM). Besides, the inhibition at 0.1 µM at AR protein [1] (setting [4]) worked out at 44%; at AR protein [2] (compound at 100 nM), 78%. For the same compound, the IC50 was determined as 0.073 µM in the experiment with LNCaP FGC cells (setting [5]) and 0.0012 µM in the experiment on VCaP cells (setting [6]).

Turning to `N#Cc1ccc(O[C@H]2CC[C@H](NC(=O)c3ccc(N4CC(N5CCC6(CC5)Oc5cc7c(cc5CC6(F)F)C(=O)N(C5CCC(=O)NC5=O)C7=O)C4)nn3)CC2)cc1Cl` (stereo partly shown) [Compound 37], on AR protein [1] (LNCaP, 8 h), the inhibition at 0.01 µM is 5% and the inhibition at 0.1 µM amounted to 29%. Also, the IC50 in the experiment with LNCaP FGC cells (setting [7]) was determined as 4.53 µM. Besides, the IC50 in the experiment on VCaP cells (VCaP, 168 h) turned out to be 3.23 µM.

Regarding `N#Cc1ccc(O[C@H]2CC[C@H](NC(=O)c3ccc(N4CCC(N5CCC(C(=O)N6CCC7(CC6)COc6c7ccc7c6CN(C6CCC(=O)NC6=O)C7=O)CC5)CC4)nn3)CC2)cc1Cl` (stereo partly shown) [Compound 160], the inhibition at 0.01 µM on AR protein [1] (setting [3]) stood at 67%. On AR protein [1] (setting [4]), the inhibition at 0.1 µM was 76%. In addition, the IC50 was found to be 59.9 µM in the experiment on LNCaP FGC cells (setting [5]) and 0.002 µM in the experiment with VCaP cells (setting [6]).

With `N#Cc1ccc(O[C@H]2CC[C@H](NC(=O)c3ccc(N4CCN(C5CCC6(CCc7cc8c(cc7O6)C(=O)N(C6CCC(=O)NC6=O)C8=O)CC5)CC4)nn3)CC2)cc1Cl` (stereo partly shown) [Compound 29], on AR protein [1] (setting [3]), the inhibition at 0.01 µM amounted to 35%. Moreover, at AR protein [1] (setting [4]), the inhibition at 0.1 µM was 63%. The results for the IC50 with LNCaP FGC cells (setting [5]) and in the experiment on VCaP cells (setting [6]) were 0.93 µM and 1.2 µM, respectively.

Regarding `CC1(C)C(=O)N(c2ccc(C#N)c(C(F)(F)F)c2)C(=S)N1c1ccc(C(=O)N2CCC(CN3CCC4(CC3)COc3cc5c(cc3C4)C(=O)N(C3CCC(=O)NC3=O)C5=O)CC2)c(F)c1` (stereo not shown) [Compound 82], the IC50 in the experiment on LNCaP FGC cells (setting [7]) turned out to be 3.39 µM; with VCaP cells (VCaP, 168 h), 4.26 µM.

Consider `COC1(CN2CCC3(CC2)COc2c(ccc4c2C(=O)N(C2CCC(=O)NC2=O)C4)C3)CCN(c2ccc(C(=O)NC3CCC(Oc4ccc(C#N)c(Cl)c4)CC3)nn2)CC1` (stereo not shown) [Compound 186], for which the IC50 in the experiment on LNCaP FGC cells (setting [5]) worked out at 0.85 µM; in the experiment with VCaP cells (setting [6]), 0.02 µM.

On to `N#Cc1ccc(O[C@H]2CC[C@H](NC(=O)c3ccc(N4CC5(CCC(N6CCC(N7CCC8(CC7)COc7c8ccc8c7CN(C7CCC(=O)NC7=O)C8=O)CC6)CC5)C4)nn3)CC2)cc1Cl` (stereo partly shown) [Compound 175], for which the IC50 came out at 8.07 µM in the experiment on LNCaP FGC cells (setting [7]) and 0.01 µM in the experiment with VCaP cells (VCaP, 168 h).

For the compound `CC1(C)C(=O)N(c2ccc(C#N)c(C(F)(F)F)c2)C(=S)N1c1ccc(C(=O)N2CC[C@@H](CN3CCC4(CC3)COc3cc5c(cc3C4)C(=O)N(C3CCC(=O)NC3=O)C5=O)C2)c(F)c1` (stereo partly shown) [Compound 83], the IC50 stood at 7.06 µM in the experiment on LNCaP FGC cells (setting [7]) and 9.73 µM with VCaP cells (VCaP, 168 h).

On to `N#Cc1ccc(O[C@H]2CC[C@H](NC(=O)c3ccc(N4CCC(C(=O)N5CCC(N6CCC7(CC6)COc6c7ccc7c6CN(C6CCC(=O)NC6=O)C7=O)CC5)CC4)nn3)CC2)cc1Cl` (stereo partly shown) [Compound 161], for which the “Degradation rate of the AR protein in VCaP cells, 10 nM (%)” value at AR protein [2] (compound at 10 nM) was determined as 47%. Moreover, the “Degradation rate of the AR protein in VCaP cells, 100 nM (%)” value at AR protein [2] (compound at 100 nM) is 84%. Also, the values for the IC50 with LNCaP FGC cells (setting [5]) and in the experiment on VCaP cells (setting [6]) were 0.44 µM and 0.003 µM, respectively.

Take `CC1(C)C(=O)N(c2ccc(C#N)c(C(F)(F)F)c2)C(=S)N1c1ccc(C(=O)N2CCC3(CCC(N4CCC5(CC4)COc4cc6c(cc4C5)C(=O)N(C4CCC(=O)NC4=O)C6=O)CC3)CC2)c(F)c1` (stereo not shown) [Compound 113]: the IC50 with LNCaP FGC cells (setting [7]) was 5.56 µM; with VCaP cells (VCaP, 168 h) it was 2.81 µM.

As to `CC1(C)C(=O)N(c2ccc(C#N)c(C(F)(F)F)c2)C(=S)N1c1ccc(C(=O)N2CCC(CN3CCN(c4cc5c(cc4F)C(=O)N(C4CCC(=O)NC4=O)C5=O)CC3)CC2)c(F)c1` (stereo not shown) [Compound 87], the IC50 with LNCaP FGC cells (setting [5]) was found to be 5.16 µM; with VCaP cells (setting [6]), 4.19 µM.

In the case of `N#Cc1ccc(O[C@H]2CC[C@H](NC(=O)c3ccc(N4CCC5(CC4)COc4cc6c(cc4O5)C(=O)N(C4CCC(=O)NC4=O)C6=O)nn3)CC2)cc1Cl` (stereo partly shown) [Compound 75], the inhibition at 0.01 µM at AR protein [1] (setting [3]) worked out at 41%. The inhibition at 0.1 µM at AR protein [1] (setting [4]) turned out to be 36%. The IC50 stood at 6.05 µM in the experiment on LNCaP FGC cells (setting [5]) and 7.4 µM with VCaP cells (setting [6]).

Consider `N#Cc1ccc(O[C@H]2CC[C@H](NC(=O)c3ccc(N4CCC5(CC4)CC(N4CCC6(CC4)COc4c6ccc6c4C(=O)N(C4CCC(=O)NC4=O)C6=O)C5)nn3)CC2)cc1Cl` (stereo partly shown) [Compound 143], for which the IC50 in the experiment with LNCaP FGC cells (setting [5]) was determined as 0.35 µM; with VCaP cells (setting [6]), 0.02 µM.

Take `N#Cc1ccc(O[C@H]2CC[C@H](NC(=O)c3ccc(N4CCC(N5CCC6(CC5)CC(F)(F)c5cc7c(cc5O6)C(=O)N(C5CCC(=O)NC5=O)C7=O)CC4)nn3)CC2)cc1Cl` (stereo partly shown) [Compound 38]: on AR protein [1] (LNCaP, 8 h), the inhibition at 0.01 µM was found to be 29% and the inhibition at 0.1 µM was found to be 48%. For the same compound, the IC50 in the experiment on LNCaP FGC cells (setting [7]) amounted to 2.4 µM. Further, the IC50 in the experiment with VCaP cells (VCaP, 168 h) is 5.29 µM.

In the case of `CC1(C)C(=O)N(c2ccc(C#N)c(C(F)(F)F)c2)C(=S)N1c1ccc(C(=O)N2CC[C@H](CN3CCC4(CC3)COc3cc5c(cc34)C(=O)N(C3CCC(=O)NC3=O)C5=O)C2)c(F)c1` (stereo partly shown) [Compound 125], the IC50 came out at 6.97 µM with LNCaP FGC cells (setting [7]) and 9.29 µM with VCaP cells (VCaP, 168 h).
